Where two headings read alike, the source gives them in different places.
Assay: Pharmacokinetics: onvansertib plasma concentrations by LC/MS-MS
Format: in vivo, human
Settings: for Cmax / Tmax / AUC(0-t) / half-life: human, plasma, oral; for AUC(0-t): read-out: AUC(0-24)
Method: Pharmacokinetics: Blood samples were collected from patients for pharmacokinetic analysis on days 1 and 5 at predose; at 0.5, 1, 2, 3, 4, 8, and 24 hours after administration of onvansertib; and once on days 8, 15, and 22. Onvansertib plasma concentrations were determined by LC/MS-MS at PRA Bioanalytical Laboratory. The pharmacokinetics parameters, including maximum plasma concentration (Cmax), time to maximum plasma concentration (tmax), half-life (t1/2), and AUC, were calculated for each patient using Phoenix WinNonlin.

[1] = 12 mg/m^2, Cycle 1 day 5, mean ± SD, 12 mg/m^2 + Decitabine, 4 patients
[2] = 12 mg/m^2, Cycle 1 day 5, mean ± SD, 12 mg/m^2 + LDAC, 3 patients
[3] = 18 mg/m^2, Cycle 1 day 5, mean ± SD, 18 mg/m^2 + Decitabine, 3 patients
[4] = 18 mg/m^2, Cycle 1 day 5, mean ± SD, 18 mg/m^2 + LDAC, 3 patients
[5] = 40 mg/m^2, Cycle 1 day 5, mean ± SD, 40 mg/m^2 + LDAC, 3 patients
[6] = 60 mg/m^2, Cycle 1 day 5, mean ± SD, 60 mg/m^2 + Decitabine, 3 patients
[7] = 60 mg/m^2, Cycle 1 day 5, mean ± SD, 60 mg/m^2 + LDAC, 5 patients
[8] = 90 mg/m^2, Cycle 1 day 5, mean ± SD, 90 mg/m^2 + Decitabine, 6 patients
[9] = Cycle 1 day 5, mean ± SD, 27 mg/m^2 + Decitabine, 3 patients
[10] = Cycle 1 day 5, mean ± SD, 27 mg/m^2 + LDAC, 3 patients
[11] = Cycle 1 day 5, mean ± SD, 40 mg/m^2 + Decitabine, 4 patients

CN1CCN(c2ccc(OC(F)(F)F)c(Nc3ncc4c(n3)-c3c(c(C(N)=O)nn3CCO)CC4)c2)CC1 [onvansertib, 1-(2-hydroxyethyl)-8-{[5-(4-methylpiperazin-1-yl)-2-(trifluoromethoxy)phenyl]amino}-4,5-dihydro-1H-pyrazolo [4,3-h] quinazoline-3-carboxamide]
Cmax and AUC0-24 versus dose (both arms, 12-90 mg/m^2): increased proportionally with the administrated dose
Cmax [1]: 163 ± 90 nM
Tmax [1]: 2.5 ± 0.6 h
AUC(0-t) [1]: 2.27 µM·h
half-life (12 mg/m^2, Cycle 1 day 5, mean ± SD, 12 mg/m^2 + Decitabine, 4 patients, read-out: t1/2 (converted)): 26 ± 16 h
Cmax [2]: 153 ± 84 nM
Tmax [2]: 2 ± 1 h
AUC(0-t) [2]: 2.15 µM·h
half-life (12 mg/m^2, Cycle 1 day 5, mean ± SD, 12 mg/m^2 + LDAC, 3 patients, read-out: t1/2 (converted)): 32 ± 21 h
Cmax [3]: 230 ± 129 nM
Tmax [3]: 2.7 ± 0.6 h
AUC(0-t) [3]: 3.38 µM·h
half-life (18 mg/m^2, Cycle 1 day 5, mean ± SD, 18 mg/m^2 + Decitabine, 3 patients, read-out: t1/2 (converted)): 21 ± 7 h
Cmax [4]: 109 ± 39 nM
Tmax [4]: 3 ± 1 h
AUC(0-t) [4]: 1.73 µM·h
half-life (18 mg/m^2, Cycle 1 day 5, mean ± SD, 18 mg/m^2 + LDAC, 3 patients, read-out: t1/2 (converted)): 33 ± 18 h
half-life (40 mg/m^2, Cycle 1 day 5, mean ± SD, 40 mg/m^2 + Decitabine, 4 patients, read-out: t1/2 (converted)): 25 ± 15 h
Cmax [5]: 350 ± 104 nM
Tmax [5]: 1.7 ± 1.2 h
AUC(0-t) [5]: 4.27 µM·h
half-life (40 mg/m^2, Cycle 1 day 5, mean ± SD, 40 mg/m^2 + LDAC, 3 patients, read-out: t1/2 (converted)): 16 ± 7 h
Cmax [6]: 1040 nM
Tmax [6]: 3.3 ± 1.2 h
AUC(0-t) [6]: 16.3 µM·h
half-life (60 mg/m^2, Cycle 1 day 5, mean ± SD, 60 mg/m^2 + Decitabine, 3 patients, read-out: t1/2 (converted)): 47 ± 8 h
Cmax [7]: 905 ± 330 nM
Tmax [7]: 2.4 ± 1.1 h
AUC(0-t) [7]: 12.7 µM·h
half-life (60 mg/m^2, Cycle 1 day 5, mean ± SD, 60 mg/m^2 + LDAC, 5 patients, read-out: t1/2 (converted)): 37 ± 13 h
Cmax [8]: 1310 nM
AUC(0-t) [8]: 21.8 µM·h
half-life (90 mg/m^2, Cycle 1 day 5, mean ± SD, 90 mg/m^2 + Decitabine, 6 patients, read-out: t1/2 (converted)): 30 ± 11 h
Cmax [9]: 4110 ± 118 nM
Tmax [9]: 2 ± 1.7 h
AUC(0-t) [9]: 5.42 µM·h
half-life (Cycle 1 day 5, mean ± SD, 27 mg/m^2 + Decitabine, 3 patients, read-out: t1/2 (converted)): 16 ± 6 h
Cmax [10]: 340 ± 219 nM
Tmax [10]: 2.7 ± 1.5 h
AUC(0-t) [10]: 4.47 µM·h
half-life (Cycle 1 day 5, mean ± SD, 27 mg/m^2 + LDAC, 3 patients, read-out: t1/2 (converted)): 18 ± 5 h
Cmax [11]: 539 ± 228 nM
Tmax [11]: 3.3 ± 1 h
AUC(0-t) [11]: 8.05 µM·h
Tmax (day 5 of cycle 1, across doses and arms): 1.7 to 3.3 h
half-life (day 5 of cycle 1, all patients, read-out: median half-life (t1/2) (converted)): 26.4 h
half-life (day 5 of cycle 1, all patients, read-out: range of half-life (t1/2)): 16 to 46.5 h

— US20230167505A1, “CIRCULATING TUMOR DNA AS A BIOMARKER FOR LEUKEMIA TREATMENT” (Cardiff Oncology, Inc., priority 2020, published 2023)
